“Also recorded” adds a separate entry of the source. Where a SMILES comes first, the peptide text is derived from it.
Target: T1, NEP (Rattus norvegicus, UniProt P07861)
T1 construct: incubations of membrane and fresh tissue slice preparations from nervous tissues; from tissue; host or cells: dorsal spinal cord of male Wistar rats (fresh slices or 100 000 x g membrane fraction)
T1 sequence (P07861 1-750): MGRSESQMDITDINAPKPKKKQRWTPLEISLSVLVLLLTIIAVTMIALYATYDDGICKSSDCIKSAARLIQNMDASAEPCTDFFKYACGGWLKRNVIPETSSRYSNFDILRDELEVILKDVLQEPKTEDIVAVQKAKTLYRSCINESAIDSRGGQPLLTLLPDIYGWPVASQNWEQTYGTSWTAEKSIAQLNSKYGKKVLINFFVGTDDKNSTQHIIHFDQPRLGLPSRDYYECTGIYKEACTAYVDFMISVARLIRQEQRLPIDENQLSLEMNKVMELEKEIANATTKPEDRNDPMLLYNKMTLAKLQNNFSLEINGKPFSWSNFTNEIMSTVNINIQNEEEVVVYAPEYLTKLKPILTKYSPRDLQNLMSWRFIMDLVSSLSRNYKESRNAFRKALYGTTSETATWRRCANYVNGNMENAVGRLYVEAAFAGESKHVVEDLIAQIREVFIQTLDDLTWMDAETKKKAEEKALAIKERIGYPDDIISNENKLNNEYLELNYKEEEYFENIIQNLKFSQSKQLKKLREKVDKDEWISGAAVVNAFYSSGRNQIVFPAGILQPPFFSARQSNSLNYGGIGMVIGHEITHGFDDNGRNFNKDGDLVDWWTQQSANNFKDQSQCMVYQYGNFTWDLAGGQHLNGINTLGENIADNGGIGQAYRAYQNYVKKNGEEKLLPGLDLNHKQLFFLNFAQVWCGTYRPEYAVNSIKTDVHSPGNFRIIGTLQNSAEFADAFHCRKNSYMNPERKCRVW
Assay: 3H-Substance P hydrolysis by rat spinal cord membrane preparations
Assay type: biochemical
Procedure: FIG. 1-A: Influence of spinal cord membrane protein concentration on Substance P hydrolysis (25 nM) in the presence or absence of the synthetic NEP inhibitor, Phosphoramidon, 10 μM. Each point represents the percent of 3H-substance P hydrolyzed by spinal cord membrane incubated 15 min. at 30° C. in a 250 μl final volume of Tris/HCl buffer. […] Each point represents the percent of 3H-substance P hydrolyzed by 250 μg membrane proteins incubated at 25° C. in a 250 μl final volume of Tris/HCl buffer. FIG. 3-B: Concentration-dependent inhibition by […] NO: 2) of 3H-Substance P (12.5 nM) catabolism by rat spinal cord membrane preparations. Comparison with-a NEP inhibitor, Phosphoramidon and, -CPB and DPPIV inhibitors, […] inhibitor. Comparison between the inhibitory activity exerted by […] NO: 2) peptide alone or in combination with CPB and DPPIV inhibitors. […] The metabolism rate of the NEP-sensitive peptides was measured using the both NEP substrates involved in the signaling of the nociceptive response: the neuropeptides Met-enkephalin and Substance P. […] The temperature and the time of the incubation as well as the concentration of substrate and of membrane enzyme are defined according to the results such as the NEP hydrolysis activity will be measured under conditions of initial velocity. […] The radioactivity of eluted and isolated compounds is determined by liquid scintillation spectrometry.

NEP inhibiting activity compared with phosphoramidon (peptide combined with the inhibitors of CPB and DPPIV): greater than that of phosphoramidon
SMILES: N=C(N)NCCC[C@H](NC(=O)[C@@H]1CCCN1C(=O)[C@H](CC(N)=O)NC(=O)[C@H](Cc1c[nH]cn1)NC(=O)[C@@H](N)CCC(N)=O)C(=O)O [sialorphin, Gln-His-Asn-Pro-Arg] (H-QHNPR-OH; N-terminus and C-terminus assumed)
inhibitory potency / protection of Substance P compared with reference NEP inhibitors (peptide alone, listed as SMR1-QHNPR): equivalent t0 that obtained with Phosphoramidon; also recorded: equivalent to that of two well-known NEP-specific inhibitors, Thiorphan and Phosphoramidon

From US7625713B2, “Process for identifying a ligand that binds to the NEP binding site for the SMR1 pentapeptide” (Institut Pasteur, priority 2000, dated 2009)
